# Data published in patent publication US12503475B2 (Centessa Pharmaceuticals (UK) Limited, priority 2020, dated 2025).
# Read-outs that look alike come from different tables or passages of the source.
# Target: T1, human orexin type 2 receptor (hOX2R) (Homo sapiens, UniProt O43614)
# T1 construct: expressed in transfected cells
# T1 sequence (O43614 1-444): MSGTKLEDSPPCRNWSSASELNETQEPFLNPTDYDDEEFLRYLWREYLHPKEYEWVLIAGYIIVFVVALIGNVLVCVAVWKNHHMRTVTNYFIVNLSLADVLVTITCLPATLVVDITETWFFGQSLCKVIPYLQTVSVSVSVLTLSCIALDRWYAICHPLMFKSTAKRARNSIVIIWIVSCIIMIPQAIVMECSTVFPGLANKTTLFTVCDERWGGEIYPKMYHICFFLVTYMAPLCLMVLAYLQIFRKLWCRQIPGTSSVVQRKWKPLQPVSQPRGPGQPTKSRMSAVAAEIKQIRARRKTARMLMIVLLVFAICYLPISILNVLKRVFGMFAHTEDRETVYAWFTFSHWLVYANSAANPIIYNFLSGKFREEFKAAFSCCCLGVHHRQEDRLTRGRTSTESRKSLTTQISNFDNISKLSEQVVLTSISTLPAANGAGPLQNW
# Assay: Measurement of orexin type 2 receptor agonist activity (FLIPR calcium fluorescence)
# Format: cell-based
# Details: for EC50: read-out: hOx2 pEC50 (converted); for Emax: CHO, read-out: hOx2 Emax (%)
# Summary of the method: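 Agonism was read as fluorescence in cells stably expressing human OX2R. E. is the response at 10 μM relative to orexin A as full agonist (100%).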
# [1] = CHO cells expressing hOX2R, FLIPR calcium fluorescence
SMILES,EC50 [1] [nM],Emax [1] [%],hOx2 Emax (%) [1],hOx2 pEC50 [1],Emax [%]
"CS(=O)(=O)N[C@@H]1[C@H](Cc2cccc(-c3ccccc3)c2F)N(C(=O)NC2CC(F)C2)CC12CC2 (stereo partly drawn) [Compound 315, (6S,7S)-6-((2-fluoro-[1,1′-biphenyl]-3-yl)methyl)-N-(3-fluorocyclobutyl)-7-(methylsulfonamido)-5-azaspiro[2.4]heptane-5-carboxamide]",10 to 100,80 to 90,–,–,–
CS(=O)(=O)N[C@@H]1[C@H](Cc2cccc(-c3ccccc3)c2)N(C(=O)C2(O)CCC2)CC12CC2 (racemic) [Compound 298],1 to 10,90 to 100,–,–,–
"COc1c(C[C@H]2[C@@H](NS(C)(=O)=O)C3(CC3)CN2C(=O)C2CC(F)C2)cccc1-c1ccccc1 (stereo partly drawn) [Compound 340, N-((6S,7S)-5-(3-fluorocyclobutane-1-carbonyl)-6-((2-methoxy-[1,1′-biphenyl]-3-yl)methyl)-5-azaspiro[2.4]heptan-7-yl)methanesulfonamide]",–,–,D (Emax ranging between 60 and 70),*** (pEC50 ranging between 7.0 and 8.0),–
"CC(F)(F)C(=O)N1CC2(CC2)[C@H](NS(=O)(=O)CF)[C@@H]1Cc1cccc(-c2cccc(F)c2)c1F [Compound 179, N-((6S,7S)-6-((2,3′-difluoro-[1,1′-biphenyl]-3-yl)methyl)-5-(2,2-difluoropropanoyl)-5-azaspiro[2.4]heptan-7-yl)-1-fluoromethanesulfonamide]",1 to 10,70 to 80,–,–,–
"CS(=O)(=O)NC1C(Cc2cccc(-c3ccccc3)c2)N(C(=O)C(F)(F)F)CC12CC2 (racemic) [Compound 4, N-(6-([1,1′-biphenyl]-3-ylmethyl)-5-(2,2,2-trifluoroacetyl)-5-azaspiro[2.4]heptan-7-yl)methanesulfonamide]",100 to 1000,60 to 70,–,–,–
"CC(C)C(=O)N1CC2(CC2)C(NS(=O)(=O)CF)C1Cc1cccc(-c2ccccc2)c1 (racemic) [Compound 36, N-(6-([1,1′-biphenyl]-3-ylmethyl)-5-isobutyryl-5-azaspiro[2.4]heptan-7-yl)-1-fluoromethanesulfonamide]",1 to 10,90 to 100,–,–,–
"C[C@@H](F)CNC(=O)N1CC2(CC2)[C@H](NS(=O)(=O)CF)[C@@H]1Cc1cccc(-c2ccccc2)c1F [Compound 206, (6S,7S)-6-((2-fluoro-[1,1′-biphenyl]-3-yl)methyl)-7-((fluoromethyl)sulfonamido)-N—((R)-2-fluoropropyl)-5-azaspiro[2.4]heptane-5-carboxamide]",1 to 10,–,–,–,90 to 100
"CS(=O)(=O)N[C@@H]1[C@H](Cc2cccc(-c3ccccc3)c2F)N(C(=O)NCCO)CC12CC2 (racemic) [Compound 307, 6-((2-fluoro-[1,1′-biphenyl]-3-yl)methyl)-N-(2-hydroxyethyl)-7-(methylsulfonamido)-5-azaspiro[2.4]heptane-5-carboxamide]",1 to 10,90 to 100,–,–,–
CN(C1CC1)S(=O)(=O)N[C@@H]1[C@H](Cc2cccc(-c3ccccc3)c2)N(C(=O)[C@H]2CCO2)CC12CC2 [Compound 97],10 to 100,80 to 90,–,–,–
"CCS(=O)(=O)N[C@@H]1[C@H](Cc2cccc(-c3cc(F)cc(F)c3)c2F)N(C(=O)[C@H]2CCO2)CC12CC2 [Compound 185, N-((6S,7S)-5-((R)-oxetane-2-carbonyl)-6-((2,3′,5′-trifluoro-[, 1′-biphenyl]-3-yl)methyl)-5-azaspiro[2.4]heptan-7-yl)ethanesulfonamide]",0.0794 to 1,90 to 100,–,–,–
"CCS(=O)(=O)NC1C(Cc2cc(F)cc(-c3ccccc3)c2F)N(C(=O)[C@H](O)CF)CC12CC2 (stereo in doubt) [Compound 356, N-((6S,7S)-6-((2,5-difluoro-[1,1′-biphenyl]-3-yl)methyl)-5-((S)-3-fluoro-2-hydroxypropanoyl)-5-azaspiro[2.4]heptan-7-yl)ethanesulfonamide]",10 to 100,90 to 100,–,–,–
"C[C@@H](F)S(=O)(=O)N[C@@H]1[C@H](Cc2cccc(-c3ccccc3)c2F)N(C(=O)[C@H]2CCO2)CC12CC2 [Compound 193, (S)-1-fluoro-N-((6S,7S)-6-((2-fluoro-[1,1′-biphenyl]-3-yl)methyl)-5-((R)-oxetane-2-carbonyl)-5-azaspiro[2.4]heptan-7-yl)ethane-1-sulfonamide]",1 to 10,90 to 100,–,–,–
"C[C@H](CF)NC(=O)N1CC2(CC2)[C@H](NS(=O)(=O)C(F)F)[C@@H]1Cc1cccc(-c2ccccc2)c1F [Compound 212, (6S,7S)-7-((difluoromethyl)sulfonamido)-6-((2-fluoro-[1,1′-biphenyl]-3-yl)methyl)-N-((R)-I-fluoropropan-2-yl)-5-azaspiro[2.4]heptane-5-carboxamide]",1 to 10,90 to 100,–,–,–
"COC[C@H]1CCN1C(=O)N1CC2(CC2)[C@H](NS(C)(=O)=O)[C@@H]1Cc1cccc(-c2ccccc2)c1F [Compound 103, N-((6S,7S)-6-((2-fluoro-[1,1′-biphenyl]-3-yl)methyl)-5-((R)-2-(methoxymethyl)azetidine-1-carbonyl)-5-azaspiro[2.4]heptan-7-yl)methanesulfonamide]",10 to 100,90 to 100,–,–,–
"CN(CCC#N)C(=O)N1CC2(CC2)[C@H](NS(C)(=O)=O)[C@@H]1Cc1cccc(-c2ccccc2)c1F [Compound 327, (6S,7S)-N-(2-cyanoethyl)-6-((2-fluoro-[1,1′-biphenyl]-3-yl)methyl)-N-methyl-7-(methylsulfonamido)-5-azaspiro[2.4]heptane-5-carboxamide]",1 to 10,90 to 100,–,–,–
"CC(C)S(=O)(=O)N[C@@H]1[C@H](Cc2cc(F)cc(-c3cc(F)cc(F)c3)c2F)N(C(=O)[C@H]2CCO2)CC12CC2 [Compound 395, N-((6S,7S)-5-((R)-oxetane-2-carbonyl)-6-((2,3′,5,5′-tetrafluoro-[1,1′-biphenyl]-3-yl)methyl)-5-azaspiro[2.4]heptan-7-yl)propane-2-sulfonamide]",0.0794 to 1,90 to 100,–,–,–
"CS(=O)(=O)NC1C(Cc2cccc(-c3ccccc3)c2F)N(C(=O)[C@H]2C[C@H](F)C2)CC12CC2 (mixture of isomers) [Compound 90, N-(6-((2-fluoro-[1,1′-biphenyl]-3-yl)methyl)-5-((1r,3r)-3-fluorocyclobutane-1-carbonyl)-5-azaspiro[2.4]heptan-7-yl)methanesulfonamide]",1 to 10,90 to 100,–,–,–
"COC1(C(=O)N2CC3(CC3)[C@H](NS(=O)(=O)CF)[C@@H]2Cc2cccc(-c3ccccc3)c2F)CC1 [Compound 180, 1-fluoro-N-((6S,7S)-6-((2-fluoro-[1,1′-biphenyl]-3-yl)methyl)-5-(1-methoxycyclopropane-1-carbonyl)-5-azaspiro[2.4]heptan-7-yl)methanesulfonamide]",1 to 10,90 to 100,–,–,–
O=C([C@H]1CCO1)N1CC2(CC2)[C@H](NS(=O)(=O)C(F)F)[C@@H]1Cc1cccc(-c2cccc(F)c2F)c1F [Compound 172],1 to 10,90 to 100,–,–,–
"O=C(NCC1(F)CC1)N1CC2(CC2)[C@H](NS(=O)(=O)CF)[C@@H]1Cc1cc(F)cc(-c2ccccc2)c1F [Compound 228, (6S,7S)-6-((2,5-difluoro-[1,1′-biphenyl]-3-yl)methyl)-N-((1-fluorocyclopropyl)methyl)-7-((fluoromethyl)sulfonamido)-5-azaspiro[2.4]heptane-5-carboxamide]",1 to 10,90 to 100,–,–,–
"O=C([C@H]1CCO1)N1CC2(CC2)[C@H](NS(=O)(=O)C2CC2)[C@@H]1Cc1cccc(-c2cc(F)cc(F)c2)c1F [Compound 223, N-((6S,7S)-5-((R)-oxetane-2-carbonyl)-6-((2,3′,5′-trifluoro-[1,1′-biphenyl]-3-yl)methyl)-5-azaspiro[2.4]heptan-7-yl)cyclopropanesulfonamide]",0.0794 to 1,90 to 100,–,–,–
"COCCN(C)C(=O)N1CC2(CC2)[C@H](NS(C)(=O)=O)[C@@H]1Cc1cccc(-c2ccccc2)c1F [Compound 326, (6S,7S)-6-((2-fluoro-[1,1′-biphenyl]-3-yl)methyl)-N-(2-methoxyethyl)-N-methyl-7-(methylsulfonamido)-5-azaspiro[2.4]heptane-5-carboxamide]",1 to 10,90 to 100,–,–,–
"CCS(=O)(=O)N[C@@H]1[C@H](Cc2cccc(-c3ccccc3)c2)N(C(=O)[C@H](O)C(F)(F)F)CC12CC2 [Compound 58, N-((6S,7S)-6-([1,1′-biphenyl]-3-ylmethyl)-5-((S)-3,3,3-trifluoro-2-hydroxypropanoyl)-5-azaspiro[2.4]heptan-7-yl)ethanesulfonamide]",1 to 10,90 to 100,–,–,–
C[C@@H](F)C(=O)N1CC2(CC2)[C@H](NS(=O)(=O)CF)[C@@H]1Cc1cc(F)cc(-c2ccccc2)c1F [Compound 418],1 to 10,90 to 100,–,–,–
CS(=O)(=O)N[C@@H]1[C@H](Cc2cccc(-c3ccccc3)c2)N(C(=O)C2(C#N)CCC2)CC12CC2 (racemic) [Compound 295],10 to 100,90 to 100,–,–,–
"CC(C)C(=O)N1CC2(CC2)[C@H](NS(C)(=O)=O)[C@@H]1Cc1cccc(-c2ccccc2)c1 [Compound 17, N-((6S,7S)-6-([1,1′-biphenyl]-3-ylmethyl)-5-isobutyryl-5-azaspiro[2.4]heptan-7-yl)methanesulfonamide]",10 to 100,90 to 100,–,–,–
